Laboratory results reported in ChEMBL document CHEMBL4304812, “Synthesis and Bioactivity of the Alanyl Phosphonamidate Stereoisomers Derived from a Butyrophilin Ligand” (ACS Med Chem Lett, 2019).

Tests used:
[1] = Stability in 50% human plasma at 100 uM measured for 24 hrs by LCMS analysis; assay type: ADME, cell-free
[2] = biological target: T1, Butyrophilin subfamily 3 member A1 (Homo sapiens, UniProt O00481); assay: Activation of butyrophilin 3A1 in human K562 cells assessed as interferon-gamma production pretreated for 15 mins followed by HMBPP-treated Vgamma9Vdelta2 T cells addition and measured after 20 hrs by ELISA; assay type: cell-based
[3] = biological target: T1, Butyrophilin subfamily 3 member A1; assay: Activation of butyrophilin 3A1 in human K562 cells assessed as interferon-gamma production pretreated for 240 mins followed by HMBPP-treated Vgamma9Vdelta2 T cells addition and measured after 20 hrs by ELISA; assay type: cell-based
[4] = biological target: T1, Butyrophilin subfamily 3 member A1; assay: Activation of butyrophilin 3A1 in human K562 cells assessed as interferon-gamma production pretreated for 60 mins followed by HMBPP-treated Vgamma9Vdelta2 T cells addition and measured after 20 hrs by ELISA; assay type: cell-based
[5] = system: PBMC; assay: Activation of cell proliferation in human PBMC incubated for 72 hrs by Cell Quanti Blue reagent based assay; assay type: functional

T1 sequence (O00481 whole entry): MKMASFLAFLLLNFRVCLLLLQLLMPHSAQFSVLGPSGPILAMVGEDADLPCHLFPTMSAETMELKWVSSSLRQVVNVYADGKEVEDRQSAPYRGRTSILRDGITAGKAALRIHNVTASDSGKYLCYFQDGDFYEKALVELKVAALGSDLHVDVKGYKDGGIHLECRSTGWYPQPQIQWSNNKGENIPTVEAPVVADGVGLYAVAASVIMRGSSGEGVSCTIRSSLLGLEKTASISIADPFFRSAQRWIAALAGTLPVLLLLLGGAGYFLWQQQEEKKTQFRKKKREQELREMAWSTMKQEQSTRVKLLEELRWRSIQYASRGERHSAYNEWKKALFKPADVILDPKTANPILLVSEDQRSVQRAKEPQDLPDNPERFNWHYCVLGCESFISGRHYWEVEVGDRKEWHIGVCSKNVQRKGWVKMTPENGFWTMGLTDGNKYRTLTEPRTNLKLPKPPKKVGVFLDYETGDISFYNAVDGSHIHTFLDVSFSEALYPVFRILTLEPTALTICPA

Compound | Stability [1] | EC50 [2] | EC50 [3] | EC50 [4] | EC50 [5]
C/C(=C\CCP(=O)(OCOC(=O)C(C)(C)C)OCOC(=O)C(C)(C)C)CO | Stable | – | – | – | –
C/C(=C\CCP(=O)(O)OP(=O)(O)O)CO | – | 7600 nM | 280 nM | 1200 nM | –
C/C(=C\CCP(=O)(O)O)CO | – | – | – | – | 4000 nM
C/C(=C\COP(=O)(O)OP(=O)(O)O)CO | – | – | – | – | 0.5 nM
C/C(=C\CCP(=O)(OCOC(=O)C(C)(C)C)Oc1ccccc1)CO (configuration not stated) | – | – | – | – | 14 nM
CCOC(=O)[C@@H](C)N[P@](=O)(CC/C=C(\C)CO)Oc1ccccc1 | Stable | 6000 nM | 520 nM | 2000 nM | –
CCOC(=O)[C@H](C)N[P@](=O)(CC/C=C(\C)CO)Oc1ccccc1 | Stable | 460 nM | 43 nM | 160 nM | 0.43 nM
C/C(=C\CCP(=O)(OCOC(=O)C(C)(C)C)Oc1cccc2ccccc12)CO (configuration not stated) | – | – | – | – | 0.79 nM
CCOC(=O)[C@H](C)N[P@@](=O)(CC/C=C(\C)CO)Oc1ccccc1 | Stable | 200 nM | 21 nM | 79 nM | 0.28 nM
CCOC(=O)[C@@H](C)N[P@@](=O)(CC/C=C(\C)CO)Oc1ccccc1 | Stable | 4600 nM | 430 nM | 1500 nM | –
CCOC(=O)CNP(=O)(CC/C=C(\C)CO)Oc1ccccc1 (racemic) | – | 1500 nM | 51 nM | 230 nM | –
O=P(O)(O)C(O)(Cn1ccnc1)P(=O)(O)O [ZOLEDRONIC ACID] | – | > 100000 nM | 23000 nM | 79000 nM | –
